Conditions: GIST patients, 400 or 600 mg/day oral
Experimental: METHODS: The IM plasma levels were analyzed in a subset of patients (n=73) for whom PK data on day 1 and at steady state (Day 29) was available (n=34 and 39 for 400 and 600 mg/day, respectively). The effect of patients demographics and blood chemistry parameters on IM PK was evaluated using a population PK approach. A relationship between IM plasma exposure and clinical outcome was explored by grouping patients into quartiles according to IM trough levels (Cmin). The clinical outcome parameters evaluated include overall objective responses (OOR=CR+PR+SD), time to progression (TTP), and KIT mutations.

inter-patient variability in IM exposure: large inter-patient variability
Compound: Cc1ccc(NC(=O)c2ccc(CN3CCN(C)CC3)cc2)cc1Nc1nccc(-c2cccnc2)n1 [imatinib, N-{5-[4-(4-methyl-piperazino-methyl)-benzoylamido]-2-methylphenyl}-4-(3-pyridyl)-2-pyrimidine-amine]
